Data from the METLIN SMRT retention time set (Domingo-Almenara et al. 2019).

Test: gradient 5% acetonitrile 3 min, to 50% in 2 min, to 85% in 15 min, held 3 min, 100 µL/min
Conditions: column: Zorbax Extend-C18 2.1 x 50 mm; eluents: water / acetonitrile, 0.1% formic acid
Summary of the method: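 Using water and acetonitrile that each contained 0.1% formic acid, mixtures of ~100 pure standards were separated at 100 μL/min on a Zorbax Extend-C18 column (2.1 × 50 mm, 1.8 μm). The HPLC fed a quadrupole time-of-flight mass spectrometer working in positive and negative ionization mode, with dead and dwell volumes of 40 μL and 900 μL. Data were acquired over 3 months. Retention time was read from computationally picked adduct peaks after manual inspection of each.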

Compound	RP-LC retention time [s]
COc1nn(C)cc1C(=O)Nc1cc(C)ns1	598
N#Cc1ccc(C(=O)NC(c2ccccc2)c2nnc(N3CCCCC3)o2)cc1 (centres undefined)	740
Cn1nc(C(=O)N2CCOCC2)c2c1CCN(C(=O)Nc1ccc(Br)cc1F)C2	713
Cc1ccc(CN2C[C@@H]3C(=O)N(Cc4ccc5c(c4)OCO5)C(=O)[C@@H]3C2)cc1	760
CC(C)CCNC(=O)C1(C)Cn2nc(C(=O)NC(C)c3ccccc3)cc2C(=O)N1C (centres undefined)	778
CN1CCc2nnc(C3CCCN3C(=O)Nc3ccc(Cl)cc3F)n2CC1 (centres undefined)	581
Cc1nc(-c2ccc(-c3noc(CN4C(=O)COc5ccc(Cl)cc54)n3)cc2)cs1	1150
COC(=O)C(C)NC(=O)NCc1cccn1Cc1cc(C)ccc1C (centres undefined)	885
Cc1nn2cnnc2c(C)c1CCC(=O)NCCN(C)Cc1ccccc1	571
CCCCC(=O)Nc1ccc2nc(N3CCN(c4cccc(C)c4C)CC3)cc(C(=O)O)c2c1	776
CN(C)c1cccc(C(=O)N2CCN(c3cc(-c4ccc(Cl)cc4)[nH]n3)CC2)c1	820
COc1ccc(-c2csc(C)n2)cc1S(=O)(=O)N1CCN(c2ccccc2F)CC1	1110
CC1CCN(c2ccc(-c3noc(CN4CCN(c5ccccn5)CC4)n3)cn2)CC1	570
Cc1noc(CNC(=O)Cc2ccc(F)cc2)n1	643
CCOC(=O)c1ccccc1NC(=O)NCC(c1cccnc1)c1c[nH]c2ccccc12 (centres undefined)	756
CC(C(=O)OC1CC2CCC(C1)N2C)c1ccc(Br)cc1 (centres undefined)	785
CC(C)CN1CCn2cc(S(=O)(=O)Nc3ccc(F)cc3)cc2C1=O	1020
CC(C)S(=O)(=O)c1cc2c(cc1NC(=O)c1ccc(C(F)(F)F)cc1)n(C)c(=O)n2C	896
Cc1nc(Nc2nccc(-c3ccccc3)n2)nc2ccccc12	677
O=C(NCc1ccccc1F)C1CC(=O)N(c2ccc3c(c2)CCN3C(=O)C2CC2)C1 (centres undefined)	745
c1ccc2c(OCc3nc4c5ccccc5ncn4n3)cccc2c1	1040
O=C(NCc1ccco1)N1CCN(c2nc3ccccc3nc2C(F)(F)F)CC1	954
COc1ccc(C(O)CN2CCN(c3ccc(C)cc3)CC2)cc1OC (centres undefined)	644

Compound	RP-LC retention time [s]
CCCC(NC(=O)Cc1ccccc1C)C(=O)Nc1nc2ccccc2[nH]1 (centres undefined)	704
COc1cccc(-c2cc3n(n2)CCCN(C(=O)NCc2ccco2)C3)c1	850
CCOc1nc2ccccc2nc1N1CCCC(C(=O)Nc2c(Cl)cccc2Cl)C1 (centres undefined)	1290
CC(NC(=O)CN1c2ccc(F)cc2-c2ccccc2S1(=O)=O)c1ccccc1 (centres undefined)	937
O=C(Nc1nc(-c2ccccc2)cs1)c1ccc(COc2c(F)c(F)c(F)c(F)c2F)o1	1220
COc1ccccc1NC(=O)N1CCc2nc(CNC(=O)C3CCC3)n(C)c2C1	604
CCn1ccc2sc(C)c(C(=O)NCc3ccc(F)cc3Cl)c2c1=O	916
CCCCOc1nc2c(c(=O)n(C)c(=O)n2C)n1C	874
COC(=O)c1sc(-c2ccccc2)cc1NC(=O)c1ccccc1[N+](=O)[O-]	1110
COc1ccc(N2CCN(C(=O)COc3ccc(NC(=O)C4CC4)cn3)CC2)cc1	673
COc1ccc(-n2nc3c(N4CCCC(C(=O)NCCc5ccccc5)C4)nnc(C)c3c2C)cc1 (centres undefined)	740
CCCC(C)NC(=O)c1ccc2c(c1)CCCN2S(=O)(=O)CC (centres undefined)	872
Cc1ccc(NC(=O)CSc2cc(N3CCCC(C)C3)ncn2)c(C)c1 (centres undefined)	1100
CCc1ccc2oc(C(=O)NCC(c3ccc(OC)cc3)N(C)C)cc(=O)c2c1 (centres undefined)	656
Fc1ccc(CN2CCC(F)(c3nc(-c4cnccn4)no3)CC2)c(Cl)c1	712
O=C(Nc1cnc(N2CCCCCC2)nc1)c1ccc(F)cc1F	954
CCn1cc(CN2CCC(C(=O)NCc3ccc(C)cc3)CC2)c2cc(OC)ccc21	720
Cc1csc(NC(=O)c2ccc(C(=O)Nc3nc(C)cs3)cc2)n1	845
CCc1ccc(-c2ccc(=O)n(CCc3nc(-c4cccc(C)c4)no3)n2)cc1	1180
Cc1ccccc1NC(=O)C1CCCN(C(=O)c2nn(C)c3c2CN(C(=O)CC2CCCC2)CC3)C1 (centres undefined)	877
Cc1cc(C)n(Cc2nc(-c3ccc(NC(=O)Cc4ccccc4C)cc3)oc2C)n1	978
O=C(Nc1cccc(Br)c1)C1CCN(C(=O)C2Sc3ccccc3NC2=O)CC1 (centres undefined)	857
COc1cccc2cc(C(=O)N3CC(c4nc(C5CC5)no4)C3)oc12	788

Compound	RP-LC retention time [s]
COc1cccc(CNC(=O)Cn2nc3cc(-c4ccncc4)nc(C)n3c2=O)c1	640
COc1ccc(-c2noc(-c3nc(Cc4cccc(F)c4)no3)n2)cc1	1170
O=C(/C=C/c1ccc(O)c(O)c1)c1ccc(O[C@@H]2O[C@H](CO)[C@@H](O)[C@H](O)[C@H]2O)c(O)c1O	641
COCCNc1c(-c2ccc(C)cc2)nc2sc(C(=O)NC3CC3)c(C)n12	766
C=CCn1c(=O)c2ccc(C(=O)NCC(C)C)cc2n2c(=O)n(CC(N)=O)nc12	643
Cc1cccc(-c2noc(Cn3ncn4nc(-c5cc(C)ccc5C)cc4c3=O)n2)c1	1270
CCOc1ccc(CNC(=O)c2snc(C(=O)NCc3ccc(F)cc3)c2N)cc1	1040
Cc1cc(C)c(-c2noc(C)n2)c(NC(=O)c2ccccc2Cl)n1	744
CC(=O)Nc1c(C)nn(-c2ccccc2)c1N1CCC(C(=O)Nc2cccc(C(C)=O)c2)CC1	709
CC(C)n1c(N2CCCN(C(=O)c3ccncc3)CC2)cc(=O)n(C(C)C)c1=O	621
COc1ccc(-c2ncc3c(n2)CCN(C(=O)Nc2cccc(C)c2C)C3)cc1	894
O=C(O)c1ccc(N2CCCC2)c(NC(=O)c2cccs2)c1	710
Cc1nn(CC(=O)NCc2ccco2)c(=O)c2nc(-c3ccccc3)sc12	782
COc1ccc(C(=O)Nc2cnn(C)c(=O)c2N2CCCCC2)cc1	923
Cc1nc(C(=O)NCCCOC(C)C)c(C)n1C1CCN(C)CC1	547
O=S(=O)(Nc1ccc(F)c(F)c1)c1ccc2nncn2c1	694
O=C1CCN(C(=O)C2CCN(C(=O)c3ccoc3)CC2)CCCCCCN1	612
CCc1ccccc1NC(=O)c1cn(CC2CCCO2)cc2c(=O)n(-c3ccccc3)nc1-2 (centres undefined)	1060
CCc1noc(-c2ccnc(-n3cnc(C(=O)NCC4CC4)c3)c2)n1	801
CN(CC1(C)CCOCC1)C(=O)COc1ccccc1	742
Cc1ccccc1-c1nc(N)n(C(=O)C2CC2)n1	876
O=C(Cc1nnc(-c2ccc3ncccc3c2)o1)NCc1cccc(Cl)c1	722
COc1ccc(-c2nnc(Cc3nc(-c4ccc(F)cc4)no3)o2)cc1	954

Compound	RP-LC retention time [s]
CCn1c(=O)c(C(=O)N2CCN(C3CCCCC3)CC2)nc2cccnc21	520
CC(C)c1nnc(-c2ccc(S(=O)(=O)N3CCN(c4ccccn4)CC3)o2)o1	675
CCC(=O)N1CCN(Cc2nc3cc(NC(=O)C(C)C)ccc3n2C)CC1	584
CCNc1cc(N2CCC(CCC(=O)N3CCC(COC)CC3)CC2)ncn1	631
O=C(CCc1c(-c2ccc(Br)cc2)nc2ccccn12)Nc1ccc(F)c(F)c1	727
CCC(=O)N1CCN(Cc2nc3cc(NC(=O)c4cccs4)ccc3n2C)CC1	602
CC(=O)c1ccc(NC(=O)C(C)Oc2ccc(=O)n(-c3ccc(F)cc3)n2)cc1 (centres undefined)	727
CC(CCc1ccccc1)NC(=O)CN1CCCN(Cc2ccccc2Cl)S1(=O)=O (centres undefined)	1070
CSc1ccc(C2c3[nH]c4ccccc4c3CCN2C(=O)c2ccncc2)cc1 (centres undefined)	958
CCC(C)NC(=O)CN1C(=O)CCc2cc(S(=O)(=O)N3CCC(C)CC3)ccc21 (centres undefined)	858
COc1ccc(CC(=O)N2CCCC2c2cc(C(C)C)on2)cc1 (centres undefined)	868
Cc1cc(C(=O)N2CCCC2c2ccccc2Cl)on1 (centres undefined)	889
Cc1cc(C)nc(N2CCN(C)CC2)n1	556
O=C(Nc1ccc(OCc2nnc(-c3ccc(Cl)cc3)o2)cc1)c1ccsc1	958
CCn1nc(C)c2ccn(CC(=O)NCc3ccc(Br)cc3)c(=O)c21	797
Cc1ccccc1N1CCN(S(=O)(=O)c2cc3n(c2)CCCN(C)C3=O)CC1	813
Cc1ccc(OCC(=O)NC2(c3nc(-c4cccnc4)no3)CCCCC2)cc1	1010
O=C(c1cc(-c2cccnc2)n[nH]1)N1CCC(C(=O)N2CCN(c3ccc(Cl)cc3)CC2)CC1	694
COc1ccc(Cl)cc1NC(=O)NCCc1cn(CC(C)C)c2ncccc12	980
COCc1cc(=O)n(CC(=O)Nc2cc(F)ccc2C)c(N)n1	627
